Test results taken from the RepoRT retention time repository (doi:10.1021/acs.analchem.2c02893).

Test: RP, Thermo Scientific Acclaim RSLC 120 C18, 100 × 2.1 mm, 2.2 µm, 30 °C, 0.2 mL/min, estimated dead time 1.1 min; A: 90% water + 10% methanol + 0.01% formic acid + 5 mM ammonium formate, pH 3.61; B: methanol + 0.01% formic acid + 5 mM ammonium formate, pH 3.61; gradient (min/%B) 0/1 1/1 2/39 13/99.9 15/99.9 15.1/1 20.1/1
Conditions: stereoisomer not certain

Row | Compound | LC retention time [min]
1 | CC1=C(C(=O)O)N2C(=O)C(NC(=O)C(N)c3ccc(O)cc3)C2SC1 (stereo not drawn) [Cefadroxil] | 2.84
2 | COc1ccc2c(c1)C13CCCCC1C(C2)N(C)CC3 (stereo not drawn) [Dextromethorphan] | 6.51
3 | CC1(C)OC2COC3(COS(N)(=O)=O)OC(C)(C)OC3C2O1 (stereo not drawn) [Topiramate] | 6.08
4 | OCc1nnc2n1-c1ccc(Cl)cc1C(c1ccccc1)=NC2 [Alprazolam- alpha-Hydroxy] | 8.11
5 | CC(=O)Oc1ccccc1C(=O)O [Acetylsalicylic acid_NH4 adduct] | 4.8
6 | CCOP(=S)(NC(C)CC)Oc1cc(C)ccc1[N+](=O)[O-] (stereo not drawn) [Butamifos] | 11.2
7 | CC1(C)CC1C(=O)NC(=CCCCCSCC(N)C(=O)O)C(=O)O (stereo not drawn) [Cilastatin] | 4.88
8 | COCC(=O)N(c1c(C)cccc1C)C(C)C(=O)OC (stereo not drawn) [Metalaxyl] | 8.22
9 | c1cncc(C2CCCN2)c1 (stereo not drawn) [Nicotine-Nor] | 2.44
10 | COc1ccc2c3c([nH]c2c1)C(C)=NCC3 [Harmaline] | 5.06
11 | CN(C)CCOC1=Cc2ccccc2Sc2ccc(Cl)cc21 [Zotepine] | 9.04
12 | CCN1CC2(COC)C(O)CC(OC)C34C5CC6(O)C(OC)C(O)C(OC(C)=O)(C5C6OC(=O)c5ccccc5)C(C(OC)C23)C14 (stereo not drawn) [Aconitine] | 7.09
13 | NCC(O)c1cccc(O)c1 (stereo not drawn) [Fenefrine-Nor] | 1.81
14 | CNc1cnn(-c2cccc(C(F)(F)F)c2)c(=O)c1Cl [Norflurazon] | 8.51
15 | CN(C)CCC(c1ccccc1)c1ccccn1 (stereo not drawn) [Pheniramine] | 4.98
16 | NC(CO)C(=O)NNCc1ccc(O)c(O)c1O (stereo not drawn) [Benserazide] | 1.38
17 | CN1CCC23c4c5ccc(OC6OC(C(=O)O)C(O)C(O)C6O)c4OC2C(O)C=CC3C1C5 [Morphine-3-beta-D-glucuronide] | 1.63
18 | OC(CNCC(O)C1CCc2cc(F)ccc2O1)C1CCc2cc(F)ccc2O1 (stereo not drawn) [Nebivolol] | 8.28
19 | COC(=O)C(NC(=O)c1nn(CC2CCCCC2)c2ccccc12)C(C)C (stereo not drawn) [MA-CHMINACA] | 12.4
20 | CC(C)(C)NCC(O)COc1cccc2c1CCCC2=O (stereo not drawn) [Levobunolol] | 4.84
21 | CCNc1nc(NC(C)(C)C)nc(SC)n1 [Terbutryn] | 10.2

Row | Compound | LC retention time [min]
22 | CCNP(=S)(OC)OC(C)=CC(=O)OC(C)C (stereo not drawn) [Propetamphos] | 9.79
23 | COc1cc(C)c(C(=O)c2c(OC)ccc(Br)c2C)c(OC)c1OC [Metrafenone] | 11.4
24 | OC(Cc1ccccc1Cl)(Cn1[nH]cnc1=S)C1(Cl)CC1 (stereo not drawn) [Prothioconazole] | 11.2
25 | Cc1ccc(N(SC(F)(Cl)Cl)S(=O)(=O)N(C)C)cc1 [Tolyfluanid] | 10.8
26 | CC(C)(C)C(O)C(Cc1ccc(Cl)cc1)n1cncn1 (stereo not drawn) [Paclobutrazole] | 9.49
27 | NC1=NCCN1Cc1ccc(Cl)nc1 [Imidacloprid-guanidine] | 11
28 | c1ccc2sc(N3CCOCC3)nc2c1 [2-(4-Morpholinyl)benzothiazole] | 8.5
29 | CCCc1nn(C)c2c(=O)[nH]c(-c3cc(S(=O)(=O)N4CCN(CCO)CC4)ccc3OCC)nc12 [Sildenafil-Hydroxyhomo] | 7.83
30 | CC(NC(C)(C)C)C(=O)c1cccc(Cl)c1 (stereo not drawn) [Bupropion] | 5.76
31 | Clc1ccc2c(c1)N=C(N1CCNCC1)c1ccccc1N2 [Clozapine-Nor] | 7.29
32 | CCC(CC)COC(C(=O)OCCN(C)C)(c1ccccc1)c1ccccc1 [Denaverine] | 11.6
33 | CC(C)(C(=O)c1cccnc1)c1cccnc1 [Metyrapone] | 6.21
34 | O=C1NC(=O)C(c2ccccc2)(c2ccccc2)N1 [Phenytoin] | 7.08
35 | CCCCCCOC(=O)NC(=N)c1ccc(NCc2nc3cc(C(=O)N(CCC(=O)OCC)c4ccccn4)ccc3n2C)cc1 [Dabigatran etexilate] | 9.29
36 | CC(C)(C)NCC(O)c1ccc(O)c(NC(N)=O)c1 (stereo not drawn) [Carbuterol] | 2.89
37 | COP(=S)(OC)Oc1ccc(S(N)(=O)=O)cc1 [Cythioate] | 6.19
38 | CN(C)c1ccc(C(=C2C=CC(=[N+](C)C)C=C2)c2ccccc2)cc1 [Malachite green (MG)] | 8.34
39 | CNCCC=C1c2ccccc2CCc2ccccc21 [Triptyline-Nor] | 8.51
40 | CCOP(=S)(OCC)Oc1nc(Cl)c(Cl)cc1Cl [Chlorpyriphos] | 12.7
41 | CCCC(=O)Nc1ccc(OCC(O)CNC(C)C)c(C(C)=O)c1 (stereo not drawn) [Acebutolol] | 4.78
42 | CC(CN(C)C)CN1c2ccccc2Sc2ccc(C#N)cc21 (stereo not drawn) [Cyamemazine] | 7.52

Row | Compound | LC retention time [min]
43 | O=C1CN=C(c2ccccc2F)c2cc([N+](=O)[O-])ccc2N1 [Flunitrazepam-N-Desmethyl (Norflunitrazepam)] | 7.35
44 | Nc1nc2ccc(OC(F)(F)F)cc2s1 [Riluzole] | 9.12
45 | CC1(C)C(C(=O)c2cn(CC3CCOCC3)c3ccccc23)C1(C)C [A-834.735] | 11.4
46 | COC=C(C(=O)OC)c1ccccc1COc1cccc(C(F)(F)F)n1 [Picoxystrobin] | 10.5
47 | C#CC(C)(C)NC(=O)c1cc(Cl)cc(Cl)c1 [Propyzamide (Pronamide)] | 9.69
48 | Cc1ncc(CO)c(CO)c1O [Pyridoxine] | 2.18
49 | CCNC(=O)c1ccc(OC)cc1 [N-ethyl-4-methoxybenzamide] | 5.59
50 | CNC1=C(c2cccc(C(F)(F)F)c2)C(=O)C(c2ccccc2)O1 (stereo not drawn) [Flurtamone] | 9.14
51 | O=C(NC(=O)c1c(F)cccc1F)Nc1cc(Cl)c(OC(F)(F)C(F)C(F)(F)F)c(Cl)c1F (stereo not drawn) [Noviflumuron] | 12.7
52 | COc1cc(CCN)cc(OC)c1OC [Mescaline] | 3.88
53 | CC1COC(Cn2cncn2)(c2ccc(Oc3ccc(Cl)cc3)cc2Cl)O1 (stereo not drawn) [Difenoconazole] | 11.6
54 | CCCNCCOc1c(Cl)cc(Cl)cc1Cl | 6.99
55 | CCNc1nc(Cl)nc(NC(C)CC)n1 (stereo not drawn) [Sebuthylazine] | 9.09
56 | Nc1[nH]c(=O)ncc1F [Cytosine-5-Fluoro (broad peak)] | 1.43
57 | CCNC(C)C(O)c1ccc(O)c(O)c1 (stereo not drawn) [Dioxethedrin] | 1.99
58 | CCCC(C)(COC(N)=O)COC(N)=O [Meprobamate] | 5.94
59 | O=C(c1cccc2ccccc12)c1cn(CCCCCO)c2ccccc12 [JWH-018-M-N-5-OH-Pentyl] | 10
60 | CCCCc1oc2ccccc2c1C(=O)c1cc(I)c(OCCN(CC)CC)c(I)c1 [Amiodarone] | 12.1
61 | CCCCCn1cc(C(=O)Nc2cccc3ccccc23)c2ccccc21 [NNEI] | 11.7
62 | COCC(=O)N(c1c(C)cccc1C)N1CCOC1=O [Oxadixyl] | 6.29
63 | CC(C)c1nc(N(C)S(C)(=O)=O)nc(-c2ccc(F)cc2)c1C=CC(O)CC(O)CC(=O)O (stereo not drawn) [Rosuvastatin] | 8.2
